How the values were obtained:
human TLR8 = human TLR8 (Homo sapiens (Human), UniProt Q9NR97); experiment: TLR8 inhibition reporter assay (HEK-Blue SEAP reporter, R848 stimulation); details: read-out: TLR8 IC50; HEK-Blue cells overexpressing human TLR8, R848 15.9 μM, SEAP reporter;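 note: SEAP driven by IFN-β minimal promoter with NF-κB and AP-1 sites, 22 h incubation, compounds 0.05 nM–50 µM, inhibition scaled between agonist plus DMSO and reference inhibitor wells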
human TLR7 = human TLR7 (Homo sapiens (Human), UniProt Q9NYK1); experiment: TLR7 inhibition reporter assay (HEK-Blue SEAP reporter, gardiquimod stimulation); assay type: cell-based; details: HEK-Blue cells overexpressing human TLR7, gardiquimod 7.5 μM
human TLR7, sequence (Q9NYK1 27-1049): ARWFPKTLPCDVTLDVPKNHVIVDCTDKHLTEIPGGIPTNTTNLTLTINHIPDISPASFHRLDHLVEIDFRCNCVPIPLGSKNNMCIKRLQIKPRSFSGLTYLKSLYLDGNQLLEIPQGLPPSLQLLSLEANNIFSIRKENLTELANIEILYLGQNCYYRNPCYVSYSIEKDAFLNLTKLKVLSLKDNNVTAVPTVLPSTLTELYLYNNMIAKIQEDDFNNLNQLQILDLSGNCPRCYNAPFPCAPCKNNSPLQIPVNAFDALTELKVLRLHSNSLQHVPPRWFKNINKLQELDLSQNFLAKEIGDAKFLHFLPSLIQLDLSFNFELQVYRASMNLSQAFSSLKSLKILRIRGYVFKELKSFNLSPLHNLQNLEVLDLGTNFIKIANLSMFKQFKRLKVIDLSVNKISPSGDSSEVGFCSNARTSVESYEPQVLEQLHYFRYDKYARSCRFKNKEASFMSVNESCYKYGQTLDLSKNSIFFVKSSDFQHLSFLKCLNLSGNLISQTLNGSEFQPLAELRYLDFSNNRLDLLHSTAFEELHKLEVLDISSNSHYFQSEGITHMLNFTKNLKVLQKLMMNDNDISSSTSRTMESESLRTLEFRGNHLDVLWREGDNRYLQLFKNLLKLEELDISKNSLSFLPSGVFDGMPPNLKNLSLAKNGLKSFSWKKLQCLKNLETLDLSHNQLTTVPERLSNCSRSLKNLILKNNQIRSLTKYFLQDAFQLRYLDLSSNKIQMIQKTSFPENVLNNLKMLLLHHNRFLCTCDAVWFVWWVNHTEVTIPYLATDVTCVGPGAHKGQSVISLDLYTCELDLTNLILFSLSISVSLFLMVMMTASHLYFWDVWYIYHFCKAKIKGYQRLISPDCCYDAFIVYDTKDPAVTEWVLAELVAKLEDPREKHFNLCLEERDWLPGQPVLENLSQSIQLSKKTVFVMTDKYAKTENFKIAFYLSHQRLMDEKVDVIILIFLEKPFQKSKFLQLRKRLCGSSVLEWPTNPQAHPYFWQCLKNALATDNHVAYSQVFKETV
Procedure: HEK-Blue™-cells (Invivogen) overexpressing human TLR7, TLR8 or TLR9 receptors were used for screening inhibitors of these receptors using an inducible SEAP (secreted embryonic alkaline phosphatase) reporter gene under the control of the IFN-β minimal promoter fused to five NF-κB and AP-1-binding sites. Briefly, cells are seeded into Greiner 384 well plates (15000 cells per well for TLR7, 20,000 for TLR8 and 25,000 for TLR9) and then treated with test compounds in DMSO to yield a final dose response concentration range of 0.05 nM-50 μM. After a 30 minute compound pre-treatment at room temperature, the cells are then stimulated with a TLR7 ligand (gardiquimod at a final concentration of 7.5 μM), TLR8 ligand (R848 at a final concentration of 15.9 μM) or TLR9 ligand (ODN2006 at a final concentration of 5 nM) to activate NF-κB and AP-1 which induce the production of SEAP. After a 22 hour incubation at 37° C., 5% CO2, SEAP levels are determined with the addition of HEK-Blue™ Detection reagent (Invivogen), a cell culture medium that allows for detection of SEAP, according to manufacturer's specifications.

human TLR9 = human TLR9 (Homo sapiens (Human), UniProt Q9NR96); experiment: TLR9 inhibition reporter assay (HEK-Blue SEAP reporter, ODN2006 stimulation); details: read-out: TLR9 IC50; HEK-Blue cells overexpressing human TLR9, ODN2006 5 nM, SEAP reporter;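 note: SEAP reporter under IFN-β minimal promoter with five NF-κB and AP-1 sites, 22 h incubation, compounds 0.05 nM–50 µM, inhibition relative to agonist plus DMSO versus known inhibitor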
human TLR9, sequence (Q9NR96 26-1032): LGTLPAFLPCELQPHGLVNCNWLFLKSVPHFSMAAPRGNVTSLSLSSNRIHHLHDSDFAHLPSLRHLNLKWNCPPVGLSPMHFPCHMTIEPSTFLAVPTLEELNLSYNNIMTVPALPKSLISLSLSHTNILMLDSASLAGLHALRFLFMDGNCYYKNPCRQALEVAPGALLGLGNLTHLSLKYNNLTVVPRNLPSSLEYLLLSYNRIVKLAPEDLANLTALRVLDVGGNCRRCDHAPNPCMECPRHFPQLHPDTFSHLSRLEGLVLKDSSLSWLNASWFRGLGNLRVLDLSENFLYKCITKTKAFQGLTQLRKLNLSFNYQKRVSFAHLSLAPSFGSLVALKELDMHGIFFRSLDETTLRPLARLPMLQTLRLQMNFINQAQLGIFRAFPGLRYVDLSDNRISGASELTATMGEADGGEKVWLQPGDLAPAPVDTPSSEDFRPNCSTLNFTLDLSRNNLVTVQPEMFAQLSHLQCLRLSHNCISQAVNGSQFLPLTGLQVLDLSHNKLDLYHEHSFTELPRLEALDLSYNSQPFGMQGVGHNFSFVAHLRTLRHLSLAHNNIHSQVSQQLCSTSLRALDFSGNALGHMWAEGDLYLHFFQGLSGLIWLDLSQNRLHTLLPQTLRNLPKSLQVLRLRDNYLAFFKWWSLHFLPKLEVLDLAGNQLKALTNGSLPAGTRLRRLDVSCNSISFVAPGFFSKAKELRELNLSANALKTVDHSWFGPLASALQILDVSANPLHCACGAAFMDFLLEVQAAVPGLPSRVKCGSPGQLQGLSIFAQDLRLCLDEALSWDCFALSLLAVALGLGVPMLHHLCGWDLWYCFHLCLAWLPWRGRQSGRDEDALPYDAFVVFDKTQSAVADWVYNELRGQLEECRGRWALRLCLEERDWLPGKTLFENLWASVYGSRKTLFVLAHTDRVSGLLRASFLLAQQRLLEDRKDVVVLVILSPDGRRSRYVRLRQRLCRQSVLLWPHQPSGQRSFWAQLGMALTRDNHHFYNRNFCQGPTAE

human TLR8, sequence (Q9NR97 27-1041): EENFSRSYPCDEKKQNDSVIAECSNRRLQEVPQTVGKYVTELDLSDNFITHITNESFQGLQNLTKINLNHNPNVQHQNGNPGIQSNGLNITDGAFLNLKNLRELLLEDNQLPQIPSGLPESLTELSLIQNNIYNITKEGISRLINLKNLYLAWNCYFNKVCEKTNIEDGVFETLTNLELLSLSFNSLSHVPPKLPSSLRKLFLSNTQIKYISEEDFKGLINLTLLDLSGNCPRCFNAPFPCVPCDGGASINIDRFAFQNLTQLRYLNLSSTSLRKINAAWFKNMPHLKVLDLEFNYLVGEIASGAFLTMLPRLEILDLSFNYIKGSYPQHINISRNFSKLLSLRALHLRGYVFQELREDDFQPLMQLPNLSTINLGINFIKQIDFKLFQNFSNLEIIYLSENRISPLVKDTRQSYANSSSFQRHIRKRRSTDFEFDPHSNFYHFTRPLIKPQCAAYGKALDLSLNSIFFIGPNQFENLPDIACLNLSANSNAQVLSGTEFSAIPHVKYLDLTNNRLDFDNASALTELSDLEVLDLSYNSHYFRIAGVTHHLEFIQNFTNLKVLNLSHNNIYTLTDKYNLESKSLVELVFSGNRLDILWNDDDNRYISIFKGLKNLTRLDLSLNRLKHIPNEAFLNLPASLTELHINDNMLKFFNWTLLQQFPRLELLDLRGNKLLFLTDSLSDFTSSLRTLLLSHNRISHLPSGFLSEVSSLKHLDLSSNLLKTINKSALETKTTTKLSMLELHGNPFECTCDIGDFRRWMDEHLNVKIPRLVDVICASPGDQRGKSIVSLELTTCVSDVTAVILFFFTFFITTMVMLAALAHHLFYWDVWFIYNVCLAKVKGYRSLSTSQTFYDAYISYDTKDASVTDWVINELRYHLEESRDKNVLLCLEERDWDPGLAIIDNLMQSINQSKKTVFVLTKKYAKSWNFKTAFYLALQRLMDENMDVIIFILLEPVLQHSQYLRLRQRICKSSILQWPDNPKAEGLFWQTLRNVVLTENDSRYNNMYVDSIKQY

| IC50 (human TLR8) [nM] | IC50 (human TLR7) [nM] | IC50 (human TLR9) [nM] | Compound |
| --- | --- | --- | --- |
| 2570 | 1290 | 7310 | Cc1cc(-c2[nH]c3ccc(C(C)C(=O)NC[C@@H]4CCNC4)cc3c2C(C)C)ccn1 (stereo partly drawn) [Example 208, 2-(3-isopropyl-2-(2-methylpyridin-4-yl)-1H-indol-5-yl)-N—(((R)-pyrrolidin-3-yl)methyl)propanamide] |
| 75 | 273 | 912 | Cc1cc(-c2[nH]c3ccc(C(C)C(=O)N[C@@H]4CCCNC4)cc3c2C(C)C)ccn1 (stereo partly drawn) [Example 195, 2-(3-isopropyl-2-(2-methylpyridin-4-yl)-1H-indol-5-yl)-N—((R)-piperidin-3-yl)propanamide] |
| 316 | 167 | 999 | Cc1cc(-c2[nH]c3ccc(C(C)C(=O)NC4CCC(N)CC4)cc3c2C(C)C)ccn1 (centres unmarked) [Example 217, N-(4-aminocyclohexyl)-2-(3-isopropyl-2-(2-methylpyridin-4-yl)-1H-indol-5-yl)propanamide] |
| 68 | 58 | 895 | Cc1cc(-c2[nH]c3ccc(C(C)(C)C(=O)N[C@@H]4CCNC4)cc3c2C(C)C)ccn1 [Example 141, (R)-2-(3-isopropyl-2-(2-methylpyridin-4-yl)-1H-indol-5-yl)-2-methyl-N-(pyrrolidin-3-yl)propanamide] |
| 28 | 6.3 | 997 | Cc1cc(-c2[nH]c3ccc(C(C)(C)C(=O)N4CCCCC4CN)cc3c2C(C)C)ccn1 (centres unmarked) [Example 157, 1-(2-(aminomethyl)piperidin-1-yl)-2-(3-isopropyl-2-(2-methylpyridin-4-yl)-1H-indol-5-yl)-2-methylpropan-1-one] |
| 341 | 277 | 2460 | Cc1cc(-c2[nH]c3ccc(C(C)C(=O)N4CCCC(CN)C4)cc3c2C(C)C)ccn1 (centres unmarked) [Example 205, 1-(3-(aminomethyl)piperidin-1-yl)-2-(3-isopropyl-2-(2-methylpyridin-4-yl)-1H-indol-5-yl)propan-1-one] |
| 59 | 33 | 20800 | Cc1cc(-c2[nH]c3ccc(C(=O)N(C)CCO)cc3c2C(C)C)cc(C)n1 [Example 105, 2-(2,6-dimethylpyridin-4-yl)-N-(2-hydroxyethyl)-3-isopropyl-N-methyl-1H-indole-5-carboxamide] |
| 303 | 443 | 1210 | Cc1cc(-c2[nH]c3ccc(C(C)C(=O)N4CCC(CN)C4)cc3c2C(C)C)ccn1 (centres unmarked) [Example 199, 1-(3-(aminomethyl)pyrrolidin-1-yl)-2-(3-isopropyl-2-(2-methylpyridin-4-yl)-1H-indol-5-yl)propan-1-one] |
| 14 | 186 | 3710 | CCc1c(-c2ccc(OC)c(OC)c2)[nH]c2ccc(C(=O)N3CCC(N4CCN(C)CC4)CC3)cc12 [Example 25, (2-(3,4-dimethoxyphenyl)-3-ethyl-1H-indol-5-yl)(4-(4-methylpiperazin-1-yl)piperidin-1-yl)methanone] |
| 26 | 40 | 1190 | COc1ccc(-c2[nH]c3ccc(C(=O)N4CC5CN(C(C)C)CC5C4)cc3c2C(C)C)cc1OC (centres unmarked) [Example 14, (2-(3,4-dimethoxyphenyl)-3-isopropyl-1H-indol-5-yl)(5-isopropylhexahydropyrrolo[3,4-c]pyrrol-2(1H)-yl)methanone] |
| 64 | 52 | 1170 | Cc1cc(-c2[nH]c3ccc(C(C)(C)C(=O)N[C@H]4CCNC4)cc3c2C(C)C)ccn1 [Example 138, (S)-2-(3-isopropyl-2-(2-methylpyridin-4-yl)-1H-indol-5-yl)-2-methyl-N-(pyrrolidin-3-yl)propanamide] |
| 964 | 947 |  | Cc1cc(-c2[nH]c3ccc(C(C)C(=O)NCCC(C)(C)O)cc3c2C(C)C)ccn1 (centres unmarked) [Example 132, N-(3-hydroxy-3-methylbutyl)-2-(3-isopropyl-2-(2-methylpyridin-4-yl)-1H-indol-5-yl)propanamide] |
| 11 | 49 | 410 | Cc1cc(-c2[nH]c3ccc(C(=O)N4CC5CN(C(C)C)CC5C4)cc3c2C(C)C)cc(C)n1 (centres unmarked) [Example 110, (2-(2,6-dimethylpyridin-4-yl)-3-isopropyl-1H-indol-5-yl)(5-isopropylhexahydropyrrolo[3,4-c]pyrrol-2(1H)-yl)methanone] |
| 1630 | 1210 | 7240 | CCc1c(-c2ccc(OC)c(OC)c2)[nH]c2ccc(C(=O)N3CCCN(c4ccccn4)CC3)cc12 [Example 65, (2-(3,4-dimethoxyphenyl)-3-ethyl-1H-indol-5-yl)(4-(pyridin-2-yl)-1,4-diazepan-1-yl)methanone] |
| 399 | 284 | > 50000 | Cc1cc(-c2[nH]c3ccc(C(C)(C)C(=O)NC[C@@H](F)C(C)(C)O)cc3c2C(C)C)ccn1 [Example 133, (R)—N-(2-fluoro-3-hydroxy-3-methylbutyl)-2-(3-isopropyl-2-(2-methylpyridin-4-yl)-1H-indol-5-yl)-2-methylpropanamide] |
| 31 | 42 | 1740 | Cc1cc(-c2[nH]c3ccc(C(C)(C)C(=O)N(C)C4CCCNC4)cc3c2C(C)C)ccn1 (centres unmarked) [Example 161, 2-(3-isopropyl-2-(2-methylpyridin-4-yl)-1H-indol-5-yl)-N,2-dimethyl-N-(piperidin-3-yl)propanamide] |
| 4.8 | 144 | 2700 | CCc1c(-c2ccc(OC)c(OC)c2)[nH]c2ccc(C(=O)NCCN3CCCC3)cc12 [Example 48, 2-(3,4-dimethoxyphenyl)-3-ethyl-N-(2-(pyrrolidin-1-yl)ethyl)-1H-indole-5-carboxamide] |
| 14 | 1300 | 9940 | CCc1c(-c2ccc(OC)c(OC)c2)[nH]c2ccc(C(=O)N3CCN(CCc4ccccc4)CC3)cc12 [Example 37, (2-(3,4-dimethoxyphenyl)-3-ethyl-1H-indol-5-yl)(4-phenethylpiperazine-1-yl)methanone] |
|  | 1140 | > 50000 | CCc1c(-c2ccc(OC)c(OC)c2)[nH]c2ccc(C(=O)N3CCN(c4ccccn4)CC3)cc12 [Example 59, (2-(3,4-dimethoxyphenyl)-3-ethyl-1H-indol-5-yl)(4-(pyridin-2-yl)piperazin-1-yl)methanone] |
| 0.7 |  | 2940 | CCCN1CCC(N(C(=O)c2ccc3[nH]c(-c4cn(C)c(=O)c(Cl)c4C)c(C(C)C)c3c2)C2CC2)CC1 [Example 221, 2-(5-chloro-1,4-dimethyl-6-oxo-1,6-dihydropyridin-3-yl)-N-cyclopropyl-3-isopropyl-N-(1-propylpiperidin-4-yl)-1H-indole-5-carboxamide] |
| 256 | 58 |  | Cc1cc(-c2[nH]c3ccc(C(C)(C)C(=O)N4CCCC(CCN)C4)cc3c2C(C)C)ccn1 (centres unmarked) [Example 154, 1-(3-(2-aminoethyl)piperidin-1-yl)-2-(3-isopropyl-2-(2-methylpyridin-4-yl)-1H-indol-5-yl)-2-methylpropan-1-one] |
|  | 104 | 1390 | CCc1c(-c2ccc(OC)c(OC)c2)[nH]c2ccc(C(=O)NC3CCC(N(C)C)CC3)cc12 (centres unmarked) [Example 19, 2-(3,4-dimethoxyphenyl)-N-(4-(dimethylamino)cyclohexyl)-3-ethyl-1H-indole-5-carboxamide] |
|  | 150 | 2790 | CCc1c(-c2ccc(OC)c(OC)c2)[nH]c2ccc(C(=O)N[C@H]3CC[C@H](N)CC3)cc12 [Example 47, N-((1r,4r)-4-aminocyclohexyl)-2-(3,4-dimethoxyphenyl)-3-ethyl-1H-indole-5-carboxamide] |
| 2.1 | 141 |  | Cc1c(-c2[nH]c3ccc(C(=O)N4CCN(C)CC4)cc3c2C(C)C)cn(C)c(=O)c1Cl [Example 220, 3-chloro-5-(3-isopropyl-5-(4-methylpiperazine-1-carbonyl)-1H-indol-2-yl)-1,4-dimethylpyridin-2(1H)-one] |
|  | 705 | > 50000 | CCc1c(-c2ccc(OC)c(OC)c2)[nH]c2ccc(C(=O)NCCc3cccnc3)cc12 [Example 51, 2-(3,4-dimethoxyphenyl)-3-ethyl-N-(2-(pyridin-3-yl)ethyl)-1H-indole-5-carboxamide] |
| 110 | 194 |  | CCc1c(-c2ccc(OC)c(OC)c2)[nH]c2ccc(C(=O)N3CCN(c4cnccn4)CC3)cc12 [Example 58, (2-(3,4-dimethoxyphenyl)-3-ethyl-1H-indol-5-yl)(4-(pyrazin-2-yl)piperazin-1-yl)methanone] |
|  | 138 | 1930 | CCc1c(-c2ccc(OC)c(OC)c2)[nH]c2ccc(C(=O)N3CCN(C4CCN(C)CC4)CC3)cc12 [Example 36, (2-(3,4-dimethoxyphenyl)-3-ethyl-1H-indol-5-yl)(4-(1-methylpiperidin-4-yl)piperazin-1-yl)methanone] |
|  | 382 | 19900 | CCc1c(-c2ccc(OC)c(OC)c2)[nH]c2ccc(C(=O)NCCc3ccncc3)cc12 [Example 50, 2-(3,4-dimethoxyphenyl)-3-ethyl-N-(2-(pyridin-4-yl)ethyl)-1H-indole-5-carboxamide] |
|  | 296 | 4930 | CCc1c(-c2ccc(OC)c(OC)c2)[nH]c2ccc(C(=O)N3CCC(N(C)C)CC3)cc12 [Example 31, (2-(3,4-dimethoxyphenyl)-3-ethyl-1H-indol-5-yl)(4-(dimethylamino)piperidin-1-yl)methanone] |
|  | 144 | 2410 | CCc1c(-c2ccc(OC)c(OC)c2)[nH]c2ccc(C(=O)NCCN3CCCCC3)cc12 [Example 49, 2-(3,4-dimethoxyphenyl)-3-ethyl-N-(2-(piperidin-1-yl)ethyl)-1H-indole-5-carboxamide] |

— US11420973B2, “Amide substituted indole compounds useful as TLR inhibitors” (BRISTOL-MYERS SQUIBB COMPANY, priority 2017, dated 2022)
